Data reported in US8648066B2 (Exelixis, Inc., priority 2009, dated 2014).

Target: mTOR/GbL/Raptor (mTORC1) (Homo sapiens, UniProt P42345)
Assay: mTOR/GbL/Raptor (mTORC1) ELISA assay
Assay type: biochemical
Conditions: phosphorylation of 4E-BP1; 0.2 nM mTORC1, 10 μM ATP; read-out: IC50 in this assay (mTORC1 ELISA)
Method in brief: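 Human mTORC1 (0.2 nM) phosphorylated 50 nM His-tagged 4E-BP1 with 10 µM ATP in HEPES pH 7.2 containing 10 mM MnCl2, 120 min at ambient temperature. Substrate was captured on Ni-chelate plates; phospho-4E-BP1 was detected by primary antibody and HRP secondary with luminescence.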

CCNc1nc2ccc(-c3ccc4c(c3)CN(c3nc(C)nc(Nc5ccccc5)c3C)CCO4)cc2[nH]1 [Example 538, 6-{4-[2,5-dimethyl-6-(phenylamino)pyrimidin-4-yl]-2,3,4,5-tetrahydro-1,4-benzoxazepin-7-yl}-N--ethyl-1H-benzimidazol-2-amine]
IC50: 0.05 to 0.25 µM

Cc1nc2ncc(-c3ccc4c(c3)CN(c3ncnc5c3CC[C@H](C)C5)CCO4)cc2[nH]1 [Example 560, 7-(2-methyl-1H-imidazo[4,5-b]pyridin-6-yl)-4-[(7S)-7-methyl-5,6,7,8-tetrahydroquinazolin-4-yl]-2,3,4,5-tetrahydro-1,4-benzoxazepine]
IC50: 0.05 to 0.25 µM

COc1ccc(-c2ccc3c(c2)CN(c2nc(CN(C)C)nc4c2CC(C)(C)CC4)CCO3)cc1S(C)(=O)=O [Example 652, 1-(6,6-dimethyl-4-{7-[4-(methyloxy)-3-(methylsulfonyl)phenyl]-2,3-dihydro-1,4-benzoxazepin-4(5H)-yl}-5,6,7,8-tetrahydroquinazolin-2-yl)-N,N-dimethylmethanamine]
IC50: 0.25 to 1 µM

CC(=O)OCc1nc2c(c(N3CCOc4ccc(-c5cnc6nc(C)[nH]c6c5)cc4C3)n1)CC(C)(C)CC2 [Example 313, {6,6-dimethyl-4-[7-(2-methyl-1H-imidazo[4,5-b]pyridin-6-yl)-2,3-dihydro-1,4-benzoxazepin-4(5H)-yl]-5,6,7,8-tetrahydroquinazolin-2-yl}methyl acetate]
IC50: ≤ 0.01 µM

Cc1nc2ncc(-c3ccc4c(c3)CN(c3nc(CNS(C)(=O)=O)nc5c3CC(C)(C)CC5)CCO4)cc2[nH]1 [Example 601, N-({6,6-dimethyl-4-[7-(2-methyl-1H-imidazo[4,5-b]pyridin-6-yl)-2,3-dihydro-1,4-benzoxazepin-4(5H)-yl]-5,6,7,8-tetrahydroquinazolin-2-yl)methyl)methanesulfonamide]
IC50: ≤ 0.01 µM

C=CCc1c(C)nc(CN(C)C)nc1N1CCOc2ccc(-c3ccc4nc(C)[nH]c4c3)cc2C1 [Example 654, N,N-dimethyl-1-{4-methyl-6-[7-(2-methyl-1H-benzimidazol-6-yl)-2,3-dihydro-1,4-benzoxazepin-4(5H)-yl]-5-prop-2-en-1-ylpyrimidin-2-yl}methanamine]
IC50: 0.05 to 0.25 µM

Cc1nc2ncc(-c3ccc4c(c3)CN(c3nc(CNCC(F)F)nc5c3CC(C)(C)CC5)CCO4)cc2[nH]1 [Example 592, N-({6,6-dimethyl-4-[7-(2-methyl-1H-imidazo[4,5-b]pyridin-6-yl)-2,3-dihydro-1,4-benzoxazepin-4(5H)-yl]-5,6,7,8-tetrahydroquinazolin-2-yl}methyl)-2,2-difluoroethanamine]
IC50: ≤ 0.01 µM

CCNc1nc2ccc(-c3ccc4c(c3)CN(c3nc(C)nc5cc(OC)ccc35)CCO4)cc2[nH]1 [Example 237, N-ethyl-6-{4-[2-methyl-7-(methyloxy)quinazolin-4-yl]-2,3,4,5-tetrahydro-1,4-benzoxazepin-7-yl}-1H-benzimidazol-2-amine]
IC50: 0.25 to 1 µM

Cc1nc2ccc(-c3ccc4c(c3)CN(c3cc(C(C)C)ncn3)CCO4)cc2[nH]1 [Example 59, 7-(2-methyl-1H-benzimidazol-6-yl)-4-[6-(1-methylethyl)pyrimidin-4-yl]-2,3,4,5-tetrahydro-1,4-benzoxazepine]
IC50: 0.05 to 0.25 µM

COCCOCc1nc2c(c(N3CCOc4ccc(-c5cnc6nc(C)[nH]c6c5)cc4C3)n1)CC(C)(C)CC2 [Example 495, 4-[6,6-dimethyl-2-({[2-(methyloxy)ethyl]oxy}methyl)-5,6,7,8-tetrahydroquinazolin-4-yl]-7-(2-methyl-1H-imidazo[4,5-b]pyridin-6-yl)-2,3,4,5-tetrahydro-1,4-benzoxazepine]
IC50: ≤ 0.01 µM

COc1ccc2c(N3CCOc4ccc(-c5ccc6[nH]c(C)nc6c5)cc4C3)nc(CN(C)C)nc2c1 [Example 659, N,N-dimethyl-1-{4-[7-(2-methyl-1H-benzimidazol-5-yl)-2,3-dihydro-1,4-benzxazepin-4(5H)-yl]-7-(methyloxy)quinazolin-2-yl}methanamine]
IC50: 0.25 to 1 µM

CC(C)Nc1nc2ccc(-c3ccc4c(c3)CN(c3ccnc5ccccc35)CCO4)cc2[nH]1 [Example 209, N-(1-methylethyl)-6-(4-quinolin-4-yl-2,3,4,5-tetrahydro-1,4-benzoxazepin-7-yl)-1H-benzimidazol-2-amine]
IC50: ≥ 2 µM

Cc1nc2cc(-c3ccc4c(c3)CN(c3nc(CN(C)C)ncc3C(C)C)CCO4)ccc2[nH]1 [Example 612, N,N-dimethyl-1-{4-[7-(2-methyl-1H-benzimidazol-5-yl)-2,3-dihydro-1,4-benzoxazepin-4(5H)-yl]-5-(1-methylethyl)pyrimidin-2-yl}methanamine]
IC50: 0.05 to 0.25 µM

CC1(C)CCc2ncnc(N3CCOc4ccc(-c5cnc(N)c(S(=O)(=O)NC6CCNCC6)c5)cc4C3)c2C1 [Example 398]
IC50: 0.05 to 0.25 µM

COc1ccc2c(N3CCOc4ccc(-c5cnc(NC(C)=O)s5)cc4C3)nc(C)nc2c1 [Example 293, N-(5-{4-[2-methyl-7-(methyloxy)quinazolin-4-yl]-2,3,4,5-tetrahydro-1,4-benzoxazepin-7-yl}-1,3-thiazol-2-yl)acetamide]
IC50: ≥ 2 µM

CCNCc1nc2c(c(N3CCOc4ccc(-c5ccc6nc(C)[nH]c6c5)cc4C3)n1)CC(C)(C)CC2 [Example 589, N-({6,6-dimethyl-4-[7-(2-methyl-1H-benzimidazol-6-yl)-2,3-dihydro-1,4-benzoxazepin-4(5H)-yl]-5,6,7,8-tetrahydroquinazolin-2-yl}methyl)ethanamine]
IC50: ≤ 0.01 µM

c1ccc2c(N3CCOc4ccc(-c5ccc6nc(C7CCCCC7)[nH]c6c5)cc4C3)ccnc2c1 [Example 200, 7-(2-cyclohexyl-1H-benzimidazol-6-yl)-4-quinolin-4-yl-2,3,4,5-tetrahydro-1,4-benzoxazepine]
IC50: 1 to 2 µM

CC1(C)CCc2ncnc(N3CCOc4ccc(-c5cnc(N)c(S(=O)(=O)NCC6CCCCN6)c5)cc4C3)c2C1 (stereo not shown) [Example 376, 2-amino-5-[4-(6,6-dimethyl-5,6,7,8-tetrahydroquinazolin-4-yl)-2,3,4,5-tetrahydro-1,4-benzoxazepin-7-yl]-N-(piperidin-2-ylmethyl)pyridine-3-sulfonamide]
IC50: 0.01 to 0.05 µM

CC1(C)CCc2ncnc(N3CCOc4ccc(-c5cnc6c(c5)S(=O)(=O)NC(=O)N6)cc4C3)c2C1 [Example 571, 7-[4-(6,6-dimethyl-5,6,7,8-tetrahydroquinazolin-4-yl)-2,3,4,5-tetrahydro-1,4-benzoxazepin-7-yl]-2H-pyrido[2,3-e][1,2,4]thiadiazin-3(4H)-one 1,1-dioxide]
IC50: 0.05 to 0.25 µM

Cc1nc2ccc(-c3ccc4c(c3)CN(c3ncnc(C)c3CC3CC3)CCO4)cc2[nH]1 [Example 69, 4-[5-(cyclopropylmethyl)-6-methylpyrimidin-4-yl]-7-(2-methyl-1H-benzimidazol-6-yl)-2,3,4,5-tetrahydro-1,4-benzoxazepine]
IC50: 0.05 to 0.25 µM

Cc1nc2ncc(-c3ccc4c(c3)CN(c3ncnc(NC(C)C)c3C)CCO4)cc2[nH]1 [Example 525, 5-methyl-N-(1-methylethyl)-6-[7-(2-methyl-1H-imidazo[4,5-b]pyridin-6-yl)-2,3-dihydro-1,4-benzoxazepin-4(5H)-yl]pyrimidin-4-amine]
IC50: 0.25 to 1 µM

Cc1nc2ncc(-c3ccc4c(c3)CN(c3ncnc(C)c3CC3CC3)CCO4)cc2[nH]1 [Example 493, 4-[5-(cyclopropylmethyl)-6-methylpyrimidin-4-yl]-7-(2-methyl-1H-imidazo[4,5-b]pyridin-6-yl)-2,3,4,5-tetrahydro-1,4-benzoxazepine]
IC50: 0.01 to 0.05 µM
